Assay results as given in PMC10987949, “Inhibition of HIV-1 release by ADAM metalloproteinase inhibitors” (Frontiers in Microbiology, 2024).
“Also recorded” adds a separate entry of the source. Read-outs that look alike come from different tables or passages of the source.

Experiments:
CD62L shedding = assay: Soluble CD62L ELISA, unstimulated PBMC; type: cell-based, human; settings: Homo sapiens, PBMC, read-out: Shedding inhibition Non-stim.
recombinant ADAM10 = molecular target: T1, recombinant ADAM10 (Homo sapiens, UniProt O14672); assay: Kinetic cleavage of fluorogenic TNF-α peptide ES003 by recombinant ADAM10; type: biochemical; settings: for inhibition of ADAM10 cleavage of ES003: 2 μM compound; for Ki: ES003 substrate, 4-h time point, non-linear regression, read-out: Inhibition constant Ki ADAM10
T1 construct: purchased R&D systems, Inc
T1 sequence (O14672 214-748): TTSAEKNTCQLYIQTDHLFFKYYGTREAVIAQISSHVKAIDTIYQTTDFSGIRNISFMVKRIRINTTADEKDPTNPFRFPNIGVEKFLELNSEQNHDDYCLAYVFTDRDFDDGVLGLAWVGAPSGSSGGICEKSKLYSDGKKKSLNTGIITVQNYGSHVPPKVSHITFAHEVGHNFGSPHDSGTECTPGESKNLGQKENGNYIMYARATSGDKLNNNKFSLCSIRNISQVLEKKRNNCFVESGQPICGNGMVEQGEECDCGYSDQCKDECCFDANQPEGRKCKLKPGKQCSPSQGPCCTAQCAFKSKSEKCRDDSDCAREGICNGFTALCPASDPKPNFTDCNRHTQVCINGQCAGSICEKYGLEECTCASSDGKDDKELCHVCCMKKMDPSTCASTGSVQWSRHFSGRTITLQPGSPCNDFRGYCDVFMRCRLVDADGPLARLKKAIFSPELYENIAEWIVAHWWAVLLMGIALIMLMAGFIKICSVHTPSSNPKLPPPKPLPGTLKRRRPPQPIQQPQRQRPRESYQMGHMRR
Excerpt: (§1) A fluorescence based enzymatic assay was used to measure the cleavage of fluorogenic TNF-α and L-selectin (CD62L) peptides by either recombinant ADAMs or PBMC from healthy donors. The fluorogenic substrate, synthesized by Biomatik^3, was a Dabcyl (4-(4-dimethylaminophenylazo)benzoyl)- and Edans (5-[(2-aminoethyl)amino]naphthalene-1-sulfonic acid)- conjugated 12 amino acid peptide: Dabcyl-[…]-Edans that corresponds to the extracellular membrane proximal region of CD62L. […] The cleavage was measured in a kinetic assay every 3 min for 4 h in black 96-well plates using a Synergy_h1 fluorescent plate reader (BioTek) with 340 nm excitation and 490 nm emission wavelengths. […] PBMC were stimulated with anti-CD3 antibody for 2–4 days as described above.
(§2) 96-well plate with data recorded every 3 minutes for 4 hours using a Synergy_h1 fluorescent plate reader. Each enzymatic reaction contained 50 -200 ng
(§3) Figure 2B and 2C bar diagrams are generated using the
(§4) data points at 4 hour time point of the enzymatic cleavages.

HIV-1BAL = HIV-1BAL infection of CD8-depleted PBMC, FACS (intracellular p24, CD4, CD62L); type: cell-based; settings: for accumulation of infected CD4−/CD62L− T cells (loss of CD62L): HIV-1BAL infected cells; for effect on HIV-1BAL infection (intracellular p24): day 7 post infection, compounds at 100 μM, GI254023X at 250 μM
Excerpt: (§5) The use of healthy human peripheral blood mononuclear cells (PBMC) is approved by the Department of Transfusion Medicine at the Clinical Center of National Institutes of Health. The use of PBMC from HIV-1 infected individuals for the study was approved under protocol #02-I-0202 by the Institutional Review Board (IRB) of National Institutes of Health with written informed consent from all donors. Peripheral blood mononuclear cells (PBMCs) from anonymous healthy donors were isolated by Ficoll-Paque gradient, and cultured in RPMI 1640 supplemented with 10% FBS, 1%Penicillin/streptomycin, 1% HEPES buffer and 20 U/mL IL-2 (culture media); and stimulated with 0.2 μg/mL anti-CD3 antibody (okt3) for 2 days. CD8^+ T cells were depleted prior to infection using the Stemcell CD8 positive selection kit according to manufacturer’s instructions. CD8-depleted PBMCs were plated at 2×10^6 cells/ml in 48-well plates in 1 mL culture media with various inhibitors for 60 min prior to the addition of ~80 TCID50 HIV-1BAL or HIV-1LAI. Inhibitors were replenished during media change every 3 days. The infections were proceeded with or without inhibitors for 6 days or otherwise specified number of days and then analyzed by FACS staining using fluorescent labeled CD4-BV510, CD62L-APC and CD3-PEC7 antibodies (BD Biosciences). Cells were then washed and permeabilized with CytoFix/CytoPerm (BD Biosciences) solution before intracellular staining for HIV p24 antigen using FITC conjugated anti-p24 antibody clone KC57 (Beckman Coulter, catalog 6604665). All assays were performed with cell viabilities >80%. Replication competent HIV-1 viruses were obtained from the NIH AIDS Reagent Program^4, and expanded by infecting activated CD8-depleted PBMCs, and TCID50 was determined by p24 ELISA.

HIV-1LAI = HIV-1LAI infection of CD8-depleted PBMC; type: cell-based; settings: 100 μM
Excerpt: as §5, with “CD8-depleted PBMCs were plated at 2×10^6 cells/ml in 48-well plates in 1 mL culture media with various inhibitors for 60 min prior to the addition of ~80 TCID50 HIV-1BAL or HIV-1LAI. Inhibitors were replenished during media change every 3 days.” left out, “Cells were then washed and permeabilized with CytoFix/CytoPerm (BD Biosciences) solution before intracellular staining for HIV p24 antigen using FITC conjugated anti-p24 antibody clone KC57 (Beckman Coulter, catalog 6604665). All assays were performed with cell viabilities >80%.” left out

recombinant ADAM17 = molecular target: T2, recombinant ADAM17 (Homo sapiens, UniProt P78536); assay: Kinetic cleavage of fluorogenic TNF-α peptide ES003 by recombinant ADAM17; type: biochemical; settings: for Ki: ES003 substrate, 4-h time point, non-linear regression, read-out: Inhibition constant Ki ADAM17
T2 construct: purchased R&D systems, Inc
T2 sequence (P78536 215-824): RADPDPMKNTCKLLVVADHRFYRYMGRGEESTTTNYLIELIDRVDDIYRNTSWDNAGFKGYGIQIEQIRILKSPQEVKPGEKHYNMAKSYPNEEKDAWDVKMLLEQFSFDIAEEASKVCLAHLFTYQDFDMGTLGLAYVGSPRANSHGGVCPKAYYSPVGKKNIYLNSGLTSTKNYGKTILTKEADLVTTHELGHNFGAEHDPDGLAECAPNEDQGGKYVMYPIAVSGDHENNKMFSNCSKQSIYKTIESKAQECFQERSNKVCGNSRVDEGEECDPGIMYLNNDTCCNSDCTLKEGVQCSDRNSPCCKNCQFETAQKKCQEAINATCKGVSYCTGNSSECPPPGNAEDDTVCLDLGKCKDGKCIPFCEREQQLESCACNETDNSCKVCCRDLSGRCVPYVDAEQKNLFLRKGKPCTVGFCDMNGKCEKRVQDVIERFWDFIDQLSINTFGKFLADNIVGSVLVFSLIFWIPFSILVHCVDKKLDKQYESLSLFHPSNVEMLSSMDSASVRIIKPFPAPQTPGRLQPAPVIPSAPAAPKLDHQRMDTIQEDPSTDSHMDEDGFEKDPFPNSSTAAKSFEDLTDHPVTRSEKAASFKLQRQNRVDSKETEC
Excerpt: as §1, §2, §3, §4

[1] = 10 μM compound, non-stimulated cells, ELISA

Row | Compound | inhibition at 10 µM (CD62L shedding) | concentrations inhibiting ADAM10 enzymatic activity (recombinant ADAM10) | inhibition of ADAM10 cleavage of ES003 (recombinant ADAM10) | inhibition when added on day 3 and 5 after initiation of infection (HIV-1BAL; 100μM, added day 0, 3, 5 post infection) | accumulation of infected CD4−/CD62L− T cells (loss of CD62L) (HIV-1BAL) | effect on HIV-1BAL infection (intracellular p24) (HIV-1BAL) | effect on X4 tropic HIV-1LAI infection (HIV-1LAI) | inhibition at 10 µM (CD62L shedding; [1]) | Ki (recombinant ADAM17) | Ki (recombinant ADAM10) | concentrations inhibiting ADAM17 enzymatic activity (recombinant ADAM17) | inhibition of ADAM17 cleavage of ES003 (recombinant ADAM17; 2 μM compound)
1 | CNC(=O)[C@H](Cc1ccccc1)NC(=O)[C@H](CC(C)C)[C@H](CSc1cccs1)C(=O)NO [BB-94, Batimastat] | > 50% | 20 to 50 nM | inhibited both ADAM10 and 17; also recorded: indistinguishable from that of ES003-only curve without the enzyme | progressive reduction in its inhibition | reduced the accumulation | inhibited HIV-1BAL infections | inhibited the X4 tropic HIV-1LAI infections | – | – | – | – | –
2 | CNC(=O)[C@@H](NC(=O)[C@H](CCCc1ccccc1)[C@H](C)N(O)C=O)C(C)(C)C [GI254023X] | – | – | preferentially inhibited the enzymatic activity of ADAM10 compared to ADAM17 | – | did not inhibit the accumulation | fail to significantly suppress the viral infections | – | 20 to 50% | 3600 ± 380 nM | 11 ± 9 nM | – | –
3 | CC1(C)SCCN(S(=O)(=O)c2ccc(Oc3ccncc3)cc2)[C@H]1C(=O)NO [prinomastat] | – | 20 to 50 nM | inhibited both ADAM10 and 17 | – | reduced the accumulation | inhibited HIV-1BAL infections | inhibited the X4 tropic HIV-1LAI infections | > 50% | 48 ± 36 nM | 2 ± 0.4 nM | 20 to 50 nM | inhibited both ADAM10 and 17
